# “And” between values parts separate entries of the source, which are not always exact repeats. Equal values may be shown once.
# Tests used:
# [1] = test system: MV4-11; experiment: Cell growth inhibition assay (CellTiter-Glo); assay type: cell-based; details: Homo sapiens, 72 h, highest test concentration 1 μM, mean ± SD, three independent experiments
# Experimental: The human AML cell line MV4-11 was purchased from the American Type Culture Collection (ATCC) (Manassas, VA, USA). MV4-11 was cultured in IMDM media (Corning, Crown Bioscience Inc., Taicang, China) with 10% FBS and supplemented with 2% L-glutamine and 1% pen/strep. The MV4-11 cell line was maintained in culture media at 37 °C with 5% CO2. The effects of target compounds on MV4-11 proliferation was performed by Crown Bioscience Inc. Cells were grown in 96-well culture plates (10,000/well). The compounds of various concentrations were added into the plates. Cell proliferation was determined after treatment with compounds for 72 h. Cell viability was measured using the CellTiter-Glo assay (Promega, Crown Bioscience Inc., Taicang, China) according to the manufacturer’s instructions, and luminescence was measured in a multilabel reader (Envision2014, PerkinElmer, Crown Bioscience Inc., Taicang, China). Data were normalized to the control group (DMSO) and represented by the mean of three independent measurements with standard error of <20%. IC50 values were calculated using Prism 5.0 (GraphPad Software, San Diego, CA, USA).
# [2] = target: T1, FLT3 (Homo sapiens, UniProt P36888); experiment: FLT3 kinase activity assay (Hot-Spot); assay type: biochemical; details: 10 μM ATP; mean ± SD, three independent experiments
# T1 construct: purchased Reaction Biology Corp
# T1 sequence (P36888 27-993): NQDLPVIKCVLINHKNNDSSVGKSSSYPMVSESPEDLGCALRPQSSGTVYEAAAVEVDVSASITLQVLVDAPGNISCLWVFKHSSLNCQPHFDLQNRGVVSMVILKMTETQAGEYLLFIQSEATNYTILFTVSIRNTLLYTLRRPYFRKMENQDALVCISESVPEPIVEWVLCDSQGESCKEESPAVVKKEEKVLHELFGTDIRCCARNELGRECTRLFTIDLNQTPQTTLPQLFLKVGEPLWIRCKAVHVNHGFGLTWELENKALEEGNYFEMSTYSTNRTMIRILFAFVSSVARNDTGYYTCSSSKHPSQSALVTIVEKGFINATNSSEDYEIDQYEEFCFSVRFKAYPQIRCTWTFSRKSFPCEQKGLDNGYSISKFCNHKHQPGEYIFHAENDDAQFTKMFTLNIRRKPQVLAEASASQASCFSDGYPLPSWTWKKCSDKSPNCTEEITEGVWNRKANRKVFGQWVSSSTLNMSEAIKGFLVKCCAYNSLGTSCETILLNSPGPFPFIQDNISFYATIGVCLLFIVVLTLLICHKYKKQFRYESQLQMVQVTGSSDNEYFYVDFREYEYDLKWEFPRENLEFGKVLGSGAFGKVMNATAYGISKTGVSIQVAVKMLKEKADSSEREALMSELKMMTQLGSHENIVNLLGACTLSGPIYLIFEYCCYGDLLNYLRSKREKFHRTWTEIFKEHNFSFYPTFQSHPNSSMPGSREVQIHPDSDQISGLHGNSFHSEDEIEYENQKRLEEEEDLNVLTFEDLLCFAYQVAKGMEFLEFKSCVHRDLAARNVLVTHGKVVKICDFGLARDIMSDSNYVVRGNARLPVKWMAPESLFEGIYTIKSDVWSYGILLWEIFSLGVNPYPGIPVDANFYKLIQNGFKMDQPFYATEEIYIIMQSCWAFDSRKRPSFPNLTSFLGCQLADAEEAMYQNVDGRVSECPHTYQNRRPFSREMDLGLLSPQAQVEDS
# Experimental: (§1) Activities of kinases were determined using Hot-SpotSM kinase assay which was performed by Reaction Biology Corp. (Malvern PA, USA) as described previously.
# [3] = target: T2, CDK2 (Homo sapiens, UniProt P24941); experiment: CDK2 kinase activity assay (Hot-Spot); assay type: biochemical; details: 10 μM ATP; mean ± SD, three independent experiments
# T2 construct: purchased Reaction Biology Corp
# Experimental: as §1
# [4] = target: T3, CDK4 (Homo sapiens, UniProt P11802); experiment: CDK4 kinase activity assay (Hot-Spot); assay type: biochemical; details: 10 μM ATP; mean ± SD, three independent experiments
# T3 construct: purchased Reaction Biology Corp
# Experimental: as §1
# [5] = test system: BaF3 (FLT3 (ITD-F691L)); experiment: Antiproliferative activity in BaF3 cells transformed with FLT3-ITD-F691L; assay type: cell-based; details: Mus musculus, Table S2
# T3 sequence (P11802 whole entry): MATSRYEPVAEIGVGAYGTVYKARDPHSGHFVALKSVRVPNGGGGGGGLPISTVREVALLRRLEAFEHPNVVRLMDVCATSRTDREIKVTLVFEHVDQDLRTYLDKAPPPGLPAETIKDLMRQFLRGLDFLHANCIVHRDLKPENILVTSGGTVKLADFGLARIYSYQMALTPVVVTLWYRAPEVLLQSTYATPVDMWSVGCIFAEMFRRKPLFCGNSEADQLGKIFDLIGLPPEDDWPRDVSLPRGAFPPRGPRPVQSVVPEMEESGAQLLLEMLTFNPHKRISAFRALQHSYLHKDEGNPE
# T3 sequence (P24385 whole entry partner): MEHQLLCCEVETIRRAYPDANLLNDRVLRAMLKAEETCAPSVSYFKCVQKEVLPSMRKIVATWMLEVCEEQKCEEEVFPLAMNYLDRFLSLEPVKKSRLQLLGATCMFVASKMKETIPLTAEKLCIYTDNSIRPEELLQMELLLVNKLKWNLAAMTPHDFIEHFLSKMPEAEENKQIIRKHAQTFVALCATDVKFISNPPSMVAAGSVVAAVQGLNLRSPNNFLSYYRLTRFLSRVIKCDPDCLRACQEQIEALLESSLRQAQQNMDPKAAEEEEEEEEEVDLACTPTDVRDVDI
SMILES,IC50 [1],melting point,IC50 [2],IC50 [3],IC50 [4],IC50 [5]
CC(C)(C)OC(=O)N1CCC(NC(=O)c2n[nH]cc2Nc2ncnc3[nH]ccc23)CC1 [Compound 3c],–,268 to 269 °C,88.8 ± 1.06 nM,32.8 ± 1.34 nM,87.1 ± 1.26 nM,–
O=C(Nc1ccc(N2CCNCC2)cn1)c1n[nH]cc1Nc1ncnc2sc3c(c12)CCCCC3 [Compound 8o],45.4 ± 1.07 nM,–,8.28 ± 0.12 nM,109.2 ± 1.01 nM,1.81 ± 0.023 nM,–
O=C(Nc1ccccc1)c1n[nH]cc1Nc1ncnc2[nH]ccc12 [Compound 3a],–,–,5.1 ± 0.46 nM,0.2 ± 0.01 nM,34.1 ± 0.94 nM,–
O=C(NC1CCNCC1)c1n[nH]cc1Nc1ncnc2[nH]ccc12 [Compound 3d],–,–,74.3 ± 1.21 nM,63.2 ± 0.91 nM,77.4 ± 1.1 nM,–
O=C(Nc1ccc(C(=O)N2CCOCC2)cc1)c1n[nH]cc1Nc1ncnc2sccc12 [Compound 8a],–,243 to 244 °C,17.8 ± 0.89 nM,10.4 ± 0.41 nM,33 ± 0.94 nM,–
O=C(Nc1ccc(N2CCOCC2)cc1)c1n[nH]cc1Nc1ncnc2sc3c(c12)CCCC3 [Compound 8r],3.28 ± 0.19 nM,267 to 268 °C,3.8 ± 0.1 nM,9.29 ± 0.64 nM,24.9 ± 0.29 nM,–
O=C(Nc1ccc(N2CCNCC2)cn1)c1n[nH]cc1Nc1ncnc2c1CCC2 [Compound 8q],458 ± 9.2 nM,> 290 °C,20.2 ± 0.35 nM,509 ± 10.3 nM,123.4 ± 1.09 nM,–
CN1CCCN(c2cccc(NC(=O)c3n[nH]cc3Nc3ncnc4sccc34)c2)CC1 [Compound 8f],54.1 ± 1.73 nM,> 300 °C,8.07 ± 0.21 nM,31.7 ± 0.55 nM,67.3 ± 1.09 nM,–
"CN1CCN(Cc2ccc(NC(=O)c3n[nH]cc3Nc3ncnc4[nH]ccc34)cc2)CC1 [FN-1501, 4-((7H-Pyrrolo[2,3-D]Pyrimidin-4-Yl)Amino)-N-(4-((4-Methylpiperazin-1-Yl)Methyl)Phenyl)-1H-Pyrazole-3-Carboxamide, reference compound]",9 ± 0.27 nM,–,–,1.02 nM and 2.33 nM,0.39 nM and 1.02 nM,55.9 nM
O=C(Nc1ccc(N2CCNCC2)cn1)c1n[nH]cc1Nc1ncnc2sc3c(c12)CCCC3 [Compound 8p],–,266 to 267 °C,7.45 ± 0.19 nM,86.4 ± 1.36 nM,3.81 ± 0.26 nM,–
"O=C(Nc1ccc(N2CCNCC2)cn1)c1n[nH]cc1Nc1ncnc2[nH]ccc12 [Compound 8l, 4-((7H-Pyrrolo[2,3-d]pyrimidin-4-yl)amino)-N-(5-(piperazin-1-yl)pyridin-2-yl)-1H-pyrazole-3-carboxamide]",134 ± 1.64 nM,288 to 290 °C,13.8 ± 0.37 nM,157 ± 3.22 nM,23.1 ± 0.55 nM,–
CN1CCN(C(=O)c2ccc(NC(=O)c3n[nH]cc3Nc3ncnc4sccc34)cc2)CC1 [Compound 8b],35.2 ± 0.83 nM,280 to 281 °C,19.18 ± 0.18 nM,8.42 ± 0.52 nM,30.1 ± 0.99 nM,–
"O=C(Nc1ccc(N2CCNCC2)cn1)c1n[nH]cc1Nc1ncnc2sccc12 [Compound 8k, N-(5-(Piperazin-1-yl)pyridin-2-yl)-4-(thieno[2,3-d]pyrimidin-4-ylamino)-1H-pyrazole-3-carboxamide]",51.1 ± 1.34 nM,> 300 °C,6.03 ± 0.16 nM,315.2 ± 2.3 nM,22.3 ± 0.92 nM,–
O=C(Nc1ccncc1)c1n[nH]cc1Nc1ncnc2[nH]ccc12 [Compound 3b],–,–,5.83 ± 0.74 nM,4.31 ± 0.91 nM,54.2 ± 1.26 nM,–

# Results, then the compound that gave them:
IC50 [1],melting point,IC50 [2],IC50 [3],IC50 [4],IC50 [5],SMILES
38.3 ± 1.21 nM,215 to 216 °C,2.71 ± 0.31 nM,5.49 ± 0.42 nM,51 ± 0.88 nM,–,CN1CCCN(c2cccc(NC(=O)c3n[nH]cc3Nc3ncnc4[nH]ccc34)c2)CC1 [Compound 8e]
16 ± 0.43 nM,303 to 304 °C,1.945 ± 0.013 nM,3.74 ± 0.16 nM,10.6 ± 0.24 nM,–,O=C(Nc1ccc(N2CCOCC2)cc1)c1n[nH]cc1Nc1ncnc2[nH]ccc12 [Compound 8g]
21.4 ± 0.56 nM,248 to 249 °C,2.81 ± 0.11 nM,9.64 ± 0.46 nM,17.8 ± 0.82 nM,–,"O=C(Nc1ccc(N2CC3CC2CN3)cc1)c1n[nH]cc1Nc1ncnc2[nH]ccc12 (centres unmarked) [Compound 8j, N-(4-(2,5-Diazabicyclo[2.2.1]heptan-2-yl)phenyl)-4-((7 H-pyrrolo[2,3-d]pyrimidin-4-yl)amino)-1H-pyrazole-3-carboxamide]"
7.3 ± 0.33 nM,304 to 305 °C,0.038 ± 0.001 nM,0.282 ± 0.013 nM,1.19 ± 0.09 nM,–,O=C(Nc1ccc(N2CCNCC2)cc1)c1n[nH]cc1Nc1ncnc2[nH]ccc12 [Compound 8h]
27.2 ± 0.43 nM,–,3.24 ± 0.14 nM,24.5 ± 0.57 nM,9.17 ± 0.33 nM,–,O=C(Nc1ccc(N2CC3CC2CN3)cc1)c1n[nH]cc1Nc1ncnc2sccc12 (centres unmarked) [Compound 8i]
4.28 ± 0.35 nM,223 to 224 °C,0.176 ± 0.09 nM,3.51 ± 0.19 nM,2.41 ± 0.21 nM,–,CN1CCCN(c2ccc(NC(=O)c3n[nH]cc3Nc3ncnc4sccc34)cc2)CC1 [Compound 8c]
19.9 ± 0.74 nM,–,1.88 ± 0.09 nM,98.7 ± 1.33 nM,4.85 ± 0.2 nM,–,O=C(Nc1ccc(N2CCNCC2)cn1)c1n[nH]cc1Nc1ncnc2sc3c(c12)CCC3 [Compound 8n]
9.5 ± 0.01 nM,263 to 264 °C,0.262 ± 0.01 nM,2.32 ± 0.014 nM,5.32 ± 0.31 nM,–,CN1CCCN(c2ccc(NC(=O)c3n[nH]cc3Nc3ncnc4[nH]ccc34)cc2)CC1 [Compound 8d]
9.13 ± 0.11 nM,–,0.82 ± 0.003 nM,5.43 ± 0.41 nM,4.36 ± 0.19 nM,–,O=C(Nc1ccc(N2CC3CC2CN3)cc1)c1n[nH]cc1Nc1ncnc2sc3c(c12)CCC3 (centres unmarked) [Compound 8s]

# From paper PMC6887723, “Design and Synthesis of 4-(Heterocyclic Substituted Amino)-1H-Pyrazole-3-Carboxamide Derivatives and Their Potent Activity against Acute Myeloid Leukemia (AML)” (International Journal of Molecular Sciences, 2019)
